Laboratory results as given in patent publication US4840956A, “Novel disubstituted-7-pyrrolidinoquinoline antibacterial agents” (Warner-Lambert Company, priority 1988, dated 1989).
In brackets after ≈: the same amount, converted by molar mass.

Columns and labels:
Assay in all cases: MIC by microtitration dilution method
Format in all cases: cell-based
[1] = tested on: Streptococcus pyogenes C-203; conditions: C203; Streptococcus pyogenes C-203, in vitro; read-out: Minimal Inhibitory Concentration MIC
Description: (§1) The compounds of the invention display antibacterial activity when tested by the microtitration dilution method as described in Heifetz, et al, Antimicr. Agents & Chemoth., 6, 124 (1974), which is incorporated herein by reference.
(§2) By use of the above referenced method, the following minimum inhibitory concentration values (MICs in μg/ml) were obtained for representative compounds of the invention.

[2] = tested on: Staphylococcus aureus UC-76; conditions: UC76; Staphylococcus aureus UC-76, in vitro; read-out: Minimal Inhibitory Concentration MIC
Description: as §1, §2

[3] = tested on: Streptococcus faecalis MGH-2; conditions: Enterococcus faecalis, MGH2; Streptococcus faecalis MGH-2, in vitro; read-out: Minimal Inhibitory Concentration MIC
Description: as §1, §2

[4] = tested on: Streptococcus pneumoniae SV-1; conditions: SV1; Streptococcus pneumoniae SV-1, in vitro; read-out: Minimal Inhibitory Concentration MIC
Description: as §1, §2

[5] = tested on: Staphylococcus aureus H 228; conditions: H228; Staphylococcus aureus H 228, in vitro; read-out: Minimal Inhibitory Concentration MIC
Description: as §1, §2

[6] = tested on: Pseudomonas aeruginosa UI-18; conditions: UI18, read-out: Minimal Inhibitory Concentration MIC
Description: (§3) Agents & Chemoth., 6, 124 (1974), which is incorporated herein by reference.

[7] = tested on: Klebsiella pneumoniae MGH-2; conditions: MGH2, read-out: Minimal Inhibitory Concentration MIC
Description: as §3

[8] = tested on: Enterobacter cloacae MA 2646; conditions: MA2646, read-out: Minimal Inhibitory Concentration MIC
Description: as §3

Escherichia coli Vogel = conditions: in vitro, read-out: Minimal Inhibitory Concentration MIC
Description: as §3

Proteus rettgeri M 1771 = conditions: Providencia rettgeri, M1771; Proteus rettgeri M 1771, in vitro; read-out: Minimal Inhibitory Concentration MIC
Description: as §3

NCC1(c2ccccc2)CCN(c2c(F)cc3c(=O)c(C(=O)O)cn(C4CC4)c3c2F)C1 (stereo not shown) [Example 5, 7-[[3-(Aminomethyl)-3-phenyl]-1-pyrrolidinyl]-1-cyclopropyl-6,8-difluro-1,4-dihydro-4-oxo-3-quinolinecarboxylic acid]
MIC [1]: 0.05 µg/mL (≈ 0.114 µM)
MIC [2]: 0.013 µg/mL (≈ 0.0296 µM)
MIC [3]: 0.05 µg/mL (≈ 0.114 µM)
MIC [4]: 0.013 µg/mL (≈ 0.0296 µM)
MIC [5]: 0.025 µg/mL (≈ 0.0569 µM)
MIC [6]: 0.4 µg/mL (≈ 0.91 µM)
MIC [7]: 0.1 µg/mL (≈ 0.228 µM)
MIC [8]: 0.05 µg/mL (≈ 0.114 µM)
MIC (Escherichia coli Vogel): 0.05 µg/mL (≈ 0.114 µM)
MIC (Proteus rettgeri M 1771): 0.2 µg/mL (≈ 0.455 µM)
